According to US9596857B2, “Insecticidal and miticidal mixtures of bifenthrin and cyano-pyrethroids” (FMC Corporation, priority 2005, dated 2017):
Several values for one entry are separate records, joined by “and”; a condition that tells them apart may be missing. Equal values may be shown once.

What was measured:
Type in all cases: in vivo
[1] = tested on: cotton aphid (Aphis gossypii [Glover]); assay: Foliar leaf-dip test against cotton aphid on tomato plants; conditions: technical, 72 h
Description: (§1) Candidate insecticide compositions were evaluated for activity in foliar evaluations against tobacco budworm (Heliothis virescens [Fabricius]), Colorado potato beetle (Leptinotarsa decemlineata [Say]), corn earworm (Helicoverpa zea [Boddie]), cotton aphid (Aphis gossypii [Glover]) and twospotted spider mite (Tetranychus urticae [Koch]). Each test included controls in which the formulation or test solution minus the active ingredients were applied.
In tests against cotton aphid, the leaves of 6 to 8 inch tall tomato plants (Lycopersicon lycoper) were infested with about 50 cotton aphids by placing leaf cuttings from a cotton aphid colony host tomato plant. After about 12 hours the newly infested tomato leaves were dipped into the test solutions of the test formulations to provide application rates as high as 1000 ppm of the active ingredients. The test formulations were dissolved in, and diluted as necessary, with distilled water containing 10% acetone and 0.25% of a non-ionic detergent [an octylphenolpoly(ethyleneglycolether)x, available from Roche Applied Science as Triton X-1001 to the proper concentrations. After treatment, a square of parafilm was placed around the stem of each test plant, covering the soil of each pot in order to catch dead aphids that fall from the leaves. The treated plants were transferred to a hood where they were kept until the leaves had dried. Once dry, the potted plants were placed into a tray containing at least one inch of water. The plants were spaced far enough apart to prevent the aphids from moving between plants. The trays were held in a growth chamber for 72 hours at 25° C., 50% relative humidity and a photoperiod of 14 hours light/10 hours dark. For tests in which the active ingredients were not formulated, i.e. the technical active ingredient was used; a stock solution of the test compound was made. For example, a 100 ppm stock solution may be made by dissolving 4 milligrams of the test compound in 4 mL of acetone and adding the solution to 36 mL of an aqueous Triton X-100 solution (one drop of Triton X-100 dissolved in 100 mL of distilled water). Further dilutions can be made by adding distilled water containing 10% acetone and 0.25% of Triton X-100.
At the end of the 72 hour exposure period the numbers of dead and live insects were counted. Insects were classified as “dead” if they were off-color or brown and desiccated. Using the insect counts, the activity of the test chemical was expressed in percent control. Percent control is derived from the total number of dead insects (TD) compared to the total number of insects (TI) in the test: […]

[2] = tested on: twospotted spider mite (Tetranychus urticae [Koch]); assay: Foliar leaf-dip test against twospotted spider mite on pinto bean plants; conditions: technical, 96 h
Description: as §1
In tests against twospotted spider mites, the leaves of potted 3 to 4 inch tall pinto bean plants (Phaseolus vulgaris) were infested with about 50 to 75 adult twospotted spider mites by placing leaf cuttings from a twospotted spider mite colony host pinto bean plant on the upper surface of the test plant leaves. After about 1 hour the newly infested pinto bean leaves were dipped into the test solutions of the test formulations to provide application rates as high as 1000 ppm of the active ingredients. The test formulations were dissolved in, and diluted as necessary, with distilled water containing 10% acetone and 0.25% of a non-ionic detergent [an octylphenolpoly(ethyleneglycolether)x, available from Roche Applied Science as Triton X-100] to the proper concentrations. The treated plants were transferred to a hood where they were kept until the leaves had dried. Once dry, the potted plants were placed into a tray containing at least one inch of water. The plants were spaced far enough apart to prevent the mites from moving between plants. The trays were held in a growth chamber for 96 hours at 25° C., 50% relative humidity and a photoperiod of 14 hours light/10 hours dark. For tests in which the active ingredients were not formulated, i.e. the technical active ingredient was used; a stock solution of the test compound was made. For example, a 100 ppm stock solution may be made by dissolving 4 milligrams of the test compound in 4 mL of acetone and adding the solution to 36 mL of an aqueous Triton X-100 solution (one drop of Triton X-100 dissolved in 100 mL of distilled water). Further dilutions can be made by adding distilled water containing 10% acetone and 0.25% of Triton X-100.
(§2) At the end of the 96 hour exposure period the numbers of dead and live insects were counted. […] Using the insect counts, the activity of the test chemical was expressed in percent control. Percent control is derived from the total number of dead insects (TD) compared to the total number of insects (TI) in the test: […]

[3] = tested on: corn earworm (Helicoverpa zea [Boddie]); assay: Cotton leaf-disc dip test against corn earworm; conditions: technical, 96 h
Description: as §1
In tests against corn earworm, one inch diameter leaf discs cut from cotton plant leaves (Gossypium hirsutum) were dipped into the test solutions of the test formulations to provide application rates as high as 1000 ppm of the active ingredients. The test formulations were dissolved in distilled water containing 10% acetone and 0.25% of a non-ionic detergent [an octylphenolpoly(ethyleneglycolether)x, available from Roche Applied Science as Triton X-100] to the proper concentrations. Cotton wicks, 0.5 inch diameter by 2 inches long, were soaked with distilled water and placed into the wells of a 32 well rearing tray (available as Rearing Tray Bio-Fit 32, from C-D International, Pittman, N.J.), one wick per well. Treated leaf discs were placed on top of the cotton wicks, one leaf disc per wick, and the rearing tray was transferred to a hood where they were kept until the leaf discs had dried. Each disc was infested with 1 late second to early third instar corn earworm, replicated sixteen times per rate of application, and a lid was placed on the rearing tray. The rearing trays were held in a growth chamber for 96 hours at 25° C., 50% relative humidity and a photoperiod of 12 hours light/12 hours dark. For tests in which the active ingredients were not formulated, i.e. the technical active ingredient was used; a stock solution of the test compound was made. For example, a 100 ppm stock solution may be made by dissolving 4 milligrams of the test compound in 4 mL of acetone and adding the solution to 36 mL of an aqueous Triton X-100 solution (one drop of Triton X-100 dissolved in 100 mL of distilled water). Further dilutions can be made by adding distilled water containing 10% acetone and 0.25% of Triton X-100.
as §2, with “period, the rearing tray was opened, and” for “period”

[4] = tested on: Colorado potato beetle (Leptinotarsa decemlineata [Say]); assay: Foliar leaf-dip test against adult Colorado potato beetle on tomato plants; conditions: technical, 72 h
Description: as §1
In tests against adult Colorado potato beetle, the leaves of 6-8 inch tall tomato plants (Lycopersicon lycoper) were dipped into the test solutions of the test formulations to provide application rates as high as 1000 ppm of the active ingredients. The test formulations were dissolved in distilled water containing 10% acetone and 0.25% of a non-ionic detergent [an octylphenolpoly(ethyleneglycolether)x, available from Roche Applied Science as Triton X-100] to the proper concentrations. The treated plants were transferred to a hood where they were kept until the leaves had dried. For tests in which the active ingredients were not formulated, i.e. the technical active ingredient was used; a stock solution of the test compound was made. For example, a 100 ppm stock solution may be made by dissolving 4 milligrams of the test compound in 4 mL of acetone and adding the solution to 36 mL of an aqueous Triton X-100 solution (one drop of Triton X-100 dissolved in 100 mL of distilled water). Further dilutions can be made by adding distilled water containing 10% acetone and 0.25% of Triton X-100.
The treated tomato plants were removed from their pots by cutting the stems just above the soil line. Each excised plant was placed into an individual 8-ounce paper cup. Ten adult Colorado potato beetles were placed into each paper cup, taking care not to cause injury. An opaque plastic lid was placed on each cup, for a 72 hour exposure period and held at 25° C., 50% relative humidity with a photo-period of 12 hours light and 12 hours dark. At the end of the 72 hour exposure period, the cups were opened, and the numbers of dead and live insects were counted. Using the insect counts, the activity of the test chemical was expressed in percent control. Percent control is derived from the total number of dead insects (TD) compared to the total number of insects (TI) in the test: […]

[5] = cyano-pyrethroid 30.0 ppm alone (bifenthrin 0 ppm)
[6] = cyano-pyrethroid 100.0 ppm alone (bifenthrin 0 ppm)
[7] = cyano-pyrethroid 200.0 ppm alone (bifenthrin 0 ppm)
[8] = cyano-pyrethroid 10.0 ppm alone (bifenthrin 0 ppm)
[9] = cyano-pyrethroid 0.3 ppm alone (bifenthrin 0.0 ppm)
[10] = cyano-pyrethroid 1.0 ppm alone (bifenthrin 0.0 ppm)
[11] = cyano-pyrethroid 3.0 ppm alone (bifenthrin 0.0 ppm)
[12] = cyano-pyrethroid 10.0 ppm alone (bifenthrin 0.0 ppm)
[13] = cyano-pyrethroid 0.3 ppm alone (bifenthrin 0 ppm)
[14] = cyano-pyrethroid 1.0 ppm alone (bifenthrin 0 ppm)
[15] = cyano-pyrethroid 3.0 ppm alone (bifenthrin 0 ppm)
[16] = bifenthrin 1.0 ppm alone (cyano-pyrethroid 0 ppm)
[17] = cyano-pyrethroid 60.0 ppm alone (bifenthrin 0 ppm)

Row | SMILES | % Mortality Cotton Aphid [1, 5] [%] | % Mortality Cotton Aphid [1, 6] [%] | % Mortality Twospotted Spider Mite [2, 8] [%] | % Mortality Twospotted Spider Mite [2, 5] [%] | % Mortality Twospotted Spider Mite [2, 6] [%] | % Mortality Corn Earworm [3, 9] [%] | % Mortality Corn Earworm [3, 10] [%] | % Mortality Corn Earworm [3, 11] [%] | % Mortality Corn Earworm [3, 12] [%] | % Mortality Adult Colorado Potato Beetle [4, 13] [%] | % Mortality Adult Colorado Potato Beetle [4, 14] [%] | % Mortality Adult Colorado Potato Beetle [4, 15] [%] | % Mortality Adult Colorado Potato Beetle [4, 8] [%] | % Mortality Cotton Aphid [1, 8] [%] | % Mortality Twospotted Spider Mite [2, 17] [%] | other results
1 | CC1(C)C(C=C(Cl)Cl)C1C(=O)OC(C#N)c1cccc(Oc2ccccc2)c1 (racemic) [alpha-cypermethrin, (S)-α-cyano-3-phenoxybenzyl (1R)-cis-3-(2,2-dichlorovinyl)-2,2-dimethylcyclopropanecarboxylate and (R)-α-cyano-3-phenoxybenzyl (1S)-cis-3-(2,2-dichlorovinyl)-2,2-dimethylcyclopropanecarboxylate] | 7 | 3 | 8 | 8 | 16 | 6 | 63 | 100 | 100 | 30 | 70 | 100 | 100 |  |  | % Mortality Cotton Aphid [1, 7]: 7%; % Mortality Twospotted Spider Mite [2, 7]: 32%
2 | Cc1c(COC(=O)[C@@H]2[C@H](/C=C(\Cl)C(F)(F)F)C2(C)C)cccc1-c1ccccc1 (racemic) [bifenthrin, 2-methylbiphenyl-3-ylmethyl (Z)-(1RS)-cis-3-(2-chloro-3,3,3-trifluoroprop-1-enyl)-2,2-dimethyl cyclopropanecarboxylate] |  |  |  |  |  |  |  |  |  |  |  |  |  |  |  | mortality at 200 ppm ([1]; Aphis gossypii, foliar, bifenthrin 200.0 ppm alone (cyano-pyrethroid 0 ppm)): 100%; mortality at 60 ppm ([2]; Tetranychus urticae, foliar, bifenthrin 60.0 ppm alone (cyano-pyrethroid 0 ppm)): 68%; % Mortality Twospotted Spider Mite ([2]; bifenthrin 30.0 ppm alone (cyano-pyrethroid 0 ppm)): 66% and 100% and 69%; % Mortality Twospotted Spider Mite ([2]; bifenthrin 100.0 ppm alone (cyano-pyrethroid 0 ppm)): 75% and 90% and 100%; mortality at 0.1 ppm ([3]; Helicoverpa zea, bifenthrin 0.1 ppm alone (cyano-pyrethroid 0 ppm)): 6%; mortality at 0.3 ppm ([3]; Helicoverpa zea, bifenthrin 0.3 ppm alone (cyano-pyrethroid 0 ppm)): 13%; % Mortality Corn Earworm ([3]; bifenthrin 0.3 ppm alone (cyano-pyrethroid 0 ppm)): 25%; % Mortality Corn Earworm [3, 16]: 100% and 75% and 63%; mortality at 0.3 ppm ([4]; Leptinotarsa decemlineata, foliar, bifenthrin 0.3 ppm alone (cyano-pyrethroid 0 ppm)): 0%; % Mortality Adult Colorado Potato Beetle [4, 16]: 10%
3 | CC1(C)C(C=C(Cl)Cl)C1C(=O)OC(C#N)c1ccc(F)c(Oc2ccccc2)c1 (racemic) [cyfluthrin, (RS)-α-cyano-4-fluoro-3-phenoxybenzyl (1RS)-cis-trans-3-(2,2-dichlorovinyl)-2,2-dimethylcyclopropanecarboxylate] | 6 | 9 | 14 | 17 | 11 | 13 | 69 | 100 | 100 | 10 | 70 | 80 | 100 | 4 | 23 | 
4 | CC1(C)[C@H](C(=O)O[C@H](C#N)c2cccc(Oc3ccccc3)c2)[C@@H]1/C=C(\Cl)C(F)(F)F (racemic) [lambda-cyhalothrin, (S)-α-cyano-3-phenoxybenzyl-(Z)-(1R)-cis-3-(2-chloro-3,3,3-trifluoropropenyl)-2,2-dimethylcyclopropanecarboxylate and (R)-α-cyano-3-phenoxybenzyl-(Z)-(1S)-cis-3-(2-chloro-3,3,3-trifluoropropenyl)-2,2-dimethylcyclopropanecarboxylate] | 11 | 10 | 16 | 19 | 39 | 6 | 31 | 56 | 100 | 30 | 100 | 100 | 100 | 11 | 55 | 
